Reference: patent EP0156224A2, “Novel benzoxathiin derivative, process for preparing them and pharmaceutical composition” (SUNTORY LIMITED, priority 1984, dated 1985)
Like-named read-outs stand apart in the source and are kept apart here. Blank lines part the entries; values can stand above or below the compound they belong to.

Tests used:
β-Receptor = test: β-receptor blocking effect: 3H-dihydroalprenolol binding to synaptosome membrane of rat brain
Procedure: Spraque-Dawley male rats having 150 - 200 g body weight were decapitated, and the brains were quickly taken out and, after decortication, frozen at -70°C. After freezing overnight at -70°C, the thawed brain was homogenized with a buffer [0.25 mole sucrose, 5 mmole tris(hydroxymethyl)aminomethane hydrochloride, 1 mmole magnesium chloride, pH 7.4] in an amount of 8 times the weight of the brain. The homogenate was centrifuged at 800 x g for 20 minutes, and the supernatant was centrifuged at 14,000 x g for 14 minutes, the deposit of which was washed three times with the above-mentioned buffer. The deposit finally obtained was suspended again in a buffer of 75 mmole tris(hydroxymethyl)aminomethane and 25 mmole magnesium chloride (pH 7.4) to form a membrane specimen.
To 50 1 of the membrane specimen were added 50 1 of ^3H-dihydroalprenolol (^3H-OHA) and 50 1 of the mixture of the test frug and the buffer, such that the total volume was adjusted to 150 1, and the mixture was incubated at 37°C for 10 minutes.
The reaction was stopped by adding an ice-cooled mixture of 50 mmole tris(hydroxymethyl)aminomethane hydrochloride and 17 mmole magnesium chloride (pH 7.4), and the mixture was filtered under reduced pressure through a Whatman GF/B glassfiber. The filter was washed three times and dried, and a toluene type scintillator was added to measure the radioactivity.
. In the measurement, the amount obtained by subtracting the bondings obtained in the presence of 10^-5 mole propranolol from the total bondings was considered to represent the specific bondings of the S-receptor. In addition, the determination of protein was carried out according to the method of Lowry et al. [Lowry, O.H. et al., J. Biol. Chem., 193, 265-275 (1951)].

ddy male mouse = test: Anti-arrhythmic effect: prevention of chloroform-induced ventricular flutter and fibrillation; format: in vivo; conditions: ip, 0.5 h, read-out: Anti-arrhythmic effect (ED50)
Procedure: When a compound showing an anti-arrhythmic effect is previously administered, such an irregular ventricular appearance is prevented. The compound of this invention was intraperioneally administered in various dosages to the groups of 29 - 40 mice. After 30 minutes the mice were subjected to the inhalation of chloroform, and the preventive ratios of the venticular flutter and fibrillation were measured for respective dosages.

in vivo = conditions: mouse, ddy male mice, mortality within 1 week
[1] = tested on: SHR (spontaneous hypertensive rat); test: Effect on mean blood pressure in conscious spontaneously hypertensive rats; format: in vivo; conditions: for mean blood pressure % Exchange: conscious SHR, mean ±SEM
Excerpt: In order to measure the blood pressure of a SHR (spontaneous hypertensive rat), a polyethylene tube was inserted into an artery to a level of the abdominal aorta through the crural artery, and the other end of the tube was tightly stoppered by a metal rod, extended subcutaneously and exposed out of the body at the posterior of the neck and fixed by suturation to the surrounding skin. The tube was filled with 500 U of heparin.
On the day subsequent to the operation, the blood pressure was measured without anesthetization or restriction using a pressure transducer and continously recorded on a thermal recording system together with the heart rate which was measured by driving a tachometer with the pulse wave of blood pressure.
The test drugs were dissolved in physiological saline and administered using a sound (p.o.)

[2] = 10^-5 mole test compound, 10 µM
[3] = intraperitoneal, chloroform inhalation after 30 minutes, mice
[4] = iv, caudal vein, read-out: Acute toxicity (LD50) intra-venous
[5] = po, in stomach, read-out: Acute toxicity (LD50) in stomach

β-Receptor blocking effect Inhibition (%) (β-Receptor; [2]): 73.9%
β-Receptor blocking effect Inhibition (%) (β-Receptor; 10^-6 mole test compound, 1 µM): 35.4%
Compound: CNCC(O)COc1cccc2c1OS(=O)(=O)CC2 (stereo not drawn) [Example 1, 8-(3-methylamino-2-hydroxypropoxy)-3,4-dihydro-1,2-benzoxathiin-2,2-dioxide]

β-Receptor blocking effect Inhibition (%) (β-Receptor; [2]): 62.6%
β-Receptor blocking effect Inhibition (%) (β-Receptor; 10^-6 mole test compound, 1 µM): 17.1%
Compound: CN(C)CC(O)COc1cccc2c1OS(=O)(=O)CC2 (stereo not drawn) [Example 2, 8-(3-dimethylamino-2-hydroxypropoxy)-3,4-dihydro-1,2-benzoxathiin-2,2-dioxide]

Compound: CC(C)NCC(O)COc1cccc2c1OS(=O)(=O)CC2 (stereo not drawn) [Example 3, 8-(3-isopropylamino-2-hydroxypropoxy)-3,4-dihydro-1,2-benzoxathiin-2,2-dioxide]
β-Receptor blocking effect Inhibition (%) (β-Receptor; [2]): 91.6%
β-Receptor blocking effect Inhibition (%) (β-Receptor; 10^-6 mole test compound, 1 µM): 97.6%
ED50 (ddy male mouse; [3]): 0.23 mg/kg
LD50 at 168 h (in vivo; [4]): 68.2 mg/kg
LD50 at 168 h (in vivo; [5]): > 500 mg/kg

Compound: CC(C)(C)NCC(O)COc1cccc2c1OS(=O)(=O)CC2 (stereo not drawn) [Example 4, 8-(3-t-butylamino-2-hydroxypropoxy)-3,4-dihydro-l,2-benzoxathiin-2,2-dioxide]
β-Receptor blocking effect Inhibition (%) (β-Receptor; [2]): 91.4%
β-Receptor blocking effect Inhibition (%) (β-Receptor; 10^-6 mole test compound, 1 µM): 96.3%
ED50 (ddy male mouse; [3]): 0.03 mg/kg
mean blood pressure % Exchange ([1]; 0.1 mg/kg p.o., 10 min): 6.4 ± 3.5%
mean blood pressure % Exchange ([1]; 0.1 mg/kg p.o., 20 min): 4.6 ± 3.2%
mean blood pressure % Exchange ([1]; 0.1 mg/kg p.o., 30 min): 4.1 ± 2.6%
mean blood pressure % Exchange ([1]; 0.1 mg/kg p.o., 60 min): -4.2 ± 3.8%
mean blood pressure % Exchange ([1]; 0.1 mg/kg p.o., 90 min): -6.5 ± 3.2%
mean blood pressure % Exchange ([1]; 0.1 mg/kg p.o., 120 min): -7.3 ± 5.9%
mean blood pressure % Exchange ([1]; 0.1 mg/kg p.o., 3 hr): -8.9 ± 3.0%
mean blood pressure % Exchange ([1]; 0.1 mg/kg p.o., 4 hr): -13.0 ± 2.5 %
mean blood pressure % Exchange ([1]; 0.1 mg/kg p.o., 5 hr): -14.7 ± 2.5 %
mean blood pressure % Exchange ([1]; 0.1 mg/kg p.o., 6 hr): -14.8 ± 2.4 %
mean blood pressure % Exchange ([1]; 0.1 mg/kg p.o., 24 hr): -2.8 ± 4.2%
mean blood pressure % Exchange ([1]; 1 mg/kg p.o., 10 min): 1.4 ± 1.2%
mean blood pressure % Exchange ([1]; 1 mg/kg p.o., 20 min): -0.3 ± 1.7%
mean blood pressure % Exchange ([1]; 1 mg/kg p.o., 30 min): -8.1 ± 2.9 %
mean blood pressure % Exchange ([1]; 1 mg/kg p.o., 60 min): -12.0 ± 4.3 %
mean blood pressure % Exchange ([1]; 1 mg/kg p.o., 90 min): -10.9 ± 2.8 %
mean blood pressure % Exchange ([1]; 1 mg/kg p.o., 120 min): -14.5 ± 4.3 %
mean blood pressure % Exchange ([1]; 1 mg/kg p.o., 3 hr): -16.3 ± 4.1 %
mean blood pressure % Exchange ([1]; 1 mg/kg p.o., 4 hr): -20.0 ± 3.7 %
mean blood pressure % Exchange ([1]; 1 mg/kg p.o., 5 hr): -24.5 ± 4.0 %
mean blood pressure % Exchange ([1]; 1 mg/kg p.o., 6 hr): -24.1 ± 3.3 %
mean blood pressure % Exchange ([1]; 1 mg/kg p.o., 24 hr): -11.5 ± 6.2%
duration of hypotensive effect ([1]; result in words, SHR, p.o., after 24 hours): remains effective even after 24 hours
hypotensive effect ([1]; result in words, SHR, p.o., compared with carteolol): excellent hypotensive effect at almost the same level as carteolol
LD50 at 168 h (in vivo; [4]): 59.2 mg/kg
LD50 at 168 h (in vivo; [5]): > 500 mg/kg

Compound: CCC(C)NCC(O)COc1cccc2c1OS(=O)(=O)CC2 (stereo not drawn) [Example 5, 8-(3-sec-butylamino-2-hydroxypropoxy)-3,4-dihydro-1,2-benzoxathiin-2,2-dioxide]
β-Receptor blocking effect Inhibition (%) (β-Receptor; [2]): 95.3%
β-Receptor blocking effect Inhibition (%) (β-Receptor; 10^-6 mole test compound, 1 µM): 83.0%
ED50 (ddy male mouse; [3]): 1.3 mg/kg
LD50 at 168 h (in vivo; [4]): 68.2 mg/kg
LD50 at 168 h (in vivo; [5]): > 500 mg/kg

β-Receptor blocking effect Inhibition (%) (β-Receptor; [2]): 81.9%
β-Receptor blocking effect Inhibition (%) (β-Receptor; 10^-6 mole test compound, 1 µM): 41.7%
Compound: CC(C)CNCC(O)COc1cccc2c1OS(=O)(=O)CC2 (stereo not drawn) [Example 6, 8-(3-isobutylamino-2-hydroxypropoxy)-3,4-dihydro-l,2-benzoxathiin-2,2-dioxide]

β-Receptor blocking effect Inhibition (%) (β-Receptor; [2]): 90.1%
β-Receptor blocking effect Inhibition (%) (β-Receptor; 10^-6 mole test compound, 1 µM): 75.2%
Compound: COc1ccc(CCNCC(O)COc2cccc3c2OS(=O)(=O)CC3)cc1OC (stereo not drawn) [Example 7, 8-[3-(3,4-dimethoxyphenethylamino)-2-hydroxy-propoxy]-3,4-dihydro-1,2-benzoxathiin-2,2-dioxide]

Compound: CCCC(=O)Nc1ccc(OCC(O)CNC(C)C)c(C(C)=O)c1 (stereo not drawn) [acebutolol, reference compound]
ED50 (ddy male mouse; [3]): 47 mg/kg

Compound: CC(C)(C)NCC(O)COc1cccc2c1CCC(=O)N2 (stereo not drawn) [carteolol, reference compound]
ED50 (ddy male mouse; [3]): 400 mg/kg
mean blood pressure % Exchange ([1]; 0.1 mg/kg p.o., 10 min): 1.4 ± 2.1%
mean blood pressure % Exchange ([1]; 0.1 mg/kg p.o., 20 min): -9.2 ± 4.0%
mean blood pressure % Exchange ([1]; 0.1 mg/kg p.o., 30 min): -11.3 ± 3.9 %
mean blood pressure % Exchange ([1]; 0.1 mg/kg p.o., 90 min): -18.1 ± 3.7 %
mean blood pressure % Exchange ([1]; 0.1 mg/kg p.o., 120 min): -12.7 ± 6.5%
mean blood pressure % Exchange ([1]; 0.1 mg/kg p.o., 3 hr): -15.4 ± 3.3 %
mean blood pressure % Exchange ([1]; 0.1 mg/kg p.o., 4 hr): -15.1 ± 3.7 %
mean blood pressure % Exchange ([1]; 0.1 mg/kg p.o., 5 hr): -18.8 ± 1.3 %
mean blood pressure % Exchange ([1]; 0.1 mg/kg p.o., 6 hr): -20.8 ± 1.7 %
mean blood pressure % Exchange ([1]; 0.1 mg/kg p.o., 24 hr): -2.1 ± 2.5%
mean blood pressure % Exchange ([1]; 1 mg/kg p.o., 10 min): 2.5 ± 3.2%
mean blood pressure % Exchange ([1]; 1 mg/kg p.o., 20 min): -1.4 ± 2.6%
mean blood pressure % Exchange ([1]; 1 mg/kg p.o., 30 min): -5.1 ± 3.6%
mean blood pressure % Exchange ([1]; 1 mg/kg p.o., 60 min): -11.7 ± 3.3 %
mean blood pressure % Exchange ([1]; 1 mg/kg p.o., 90 min): -14.7 ± 3.6 %
mean blood pressure % Exchange ([1]; 1 mg/kg p.o., 120 min): -23.8 ± 3.0 %
mean blood pressure % Exchange ([1]; 1 mg/kg p.o., 3 hr): -23.1 ± 4.8 %
mean blood pressure % Exchange ([1]; 1 mg/kg p.o., 4 hr): -24.4 ± 4.2 %
mean blood pressure % Exchange ([1]; 1 mg/kg p.o., 5 hr): -24.7 ± 4.7 %
mean blood pressure % Exchange ([1]; 1 mg/kg p.o., 6 hr): -21.3 ± 4.2 %
mean blood pressure % Exchange ([1]; 1 mg/kg p.o., 24 hr): -2.1 ± 4.5%
LD50 at 168 h (in vivo; [4]): 38 mg/kg

Compound: CC(C)NCC(O)COc1cccc2ccccc12 (stereo not drawn) [propranolol, reference compound]
ED50 (ddy male mouse): 2.2 mg/kg
